Data reported in US11352352B2, “Aminopyrimidine compound, preparation method therefor and use thereof” (BEIJING ADAMADLE BIOTECHNOLOGY LIMITED LIABILITY COMPANY, priority 2017, dated 2022).

Columns and labels:
Test in all cases: Cell proliferation inhibition experiment, CellTiter-Glo (CTG) method
Format in all cases: cell-based
A-431 = details: Homo sapiens, A-431, 72 h, A-431 cells, 3 days
Description: (§1) Cell Proliferation Inhibition Experiment
(§2) Compounds were tested in the selected cell lines, and solvent is set as control, nine concentrations were detected with three parallel wells for each concentration.
(§3) 2. Reagents and Materials • 1) fetal bovine serum FBS (GIBCO, Cat #10099-141) • 2) CellTiter-Glo® Luminescent Cell Viability Assay (Promega, Cat #G7572) • 3) 96-well plate with flat clear bottom, black wall plates (Corning®, Cat #3340)
(§4) The first day: Incubation and plant of cells • 1) Cells in logarithmic growth phase were harvested and counted by cell counter. Cell viability was detected by trypan blue exclusion assay to ensure that the viability of each cell line was above 90%. • 2) Cell concentration was adjusted by diluting complete culture medium, and 90 μL cell suspension was added to a 96-well plate (T0 plate and drug plate to be tested) to make the cell density reach the specified concentration. • 3) Cells in 96-well plate were incubated overnight at condition of 37° C., 5% CO2 and 95% humidity.
(§5) The second day: Reading T0 plate • 1) 10 μL culture medium was added to T0 plate. • 2) CTG reagent was melt, while the cell plate was balanced to room temperature for 30 minutes. • 3) The same volume of CTG solution was added to each well. • 4) The cell plate was vibrated for 2 minutes on an orbital shaker to lyze the cells. • 5) The cell plate was placed at room temperature for 10 minutes to stabilize the cold light signal. • 6) The cold light value was read with EnVision.
Drug Addition • 1) Drug dilution. The compounds to be tested were dissolved and packaged, then a gradient elution was performed to obtain a solution diluted 10 times. • 2) Drug addition. […] drug solution was added into each well of the 96-well plate, which was inoculated cells, three parallel wells were set for each cell concentration. The highest concentration of the compounds to be tested on A-431 was 30 μM, nine concentrations was set with 3 times dilution; while the highest concentration on NCI-H1975 and PC-9 was 1.111 μM, 9 concentrations was set with 3 times dilution. • 3) Culture. Cells in 96-well plates in which drugs have been added were cultured at condition of 37° C., 5% CO2 and 95% humidity for 3 days, and then CTG assay was performed respectively.
(§6) The third day: reading plate at the terminal • 1) CTG reagent was melt, while the cell plate was balanced to room temperature for 30 minutes. • 2) The same volume of CTG solution was added to each well. • 3) The cell plate was vibrated for 2 minutes on an orbital shaker to lyze the cells. • 4) The cell plate was placed at room temperature for 10 minutes to stabilize the cold light signal. • 5) The cold light value was read with EnVision
(§7) Data were analyzed using GraphPad Prism 5.0 software, and non-linear S curve regression was used for fitting the data to give a dose-effect curve, IC50 value was calculated accordingly. Cell Survival Rate (%)=(Lumdrugs−Lumcontrol)/(Lumcell−Lumcontrol)×100%.

PC-9 = details: Homo sapiens, PC-9, 72 h, PC-9 cells, 3 days
Description: as §1, §2, §3, §4, §5
(§8) Drug Addition • 1) Drug dilution. The compounds to be tested were dissolved and packaged, then a gradient elution was performed to obtain a solution diluted 10 times. • 2) Drug addition. […] drug solution was added into each well of the 96-well plate, which was inoculated cells, three parallel wells were set for each cell concentration.
as §6, §7

NCI-H1975 = details: for IC50: Homo sapiens, NCI-H1975, 72 h, NCI-H1975 cells, CTG, 3 days; for A-431/NCI-H1975 Selectivity: ratio of A-431 IC50 to NCI-H1975 IC50
Description: as §1, §2, §3, §4, §5, §8, §6, §7

SMILES | IC50 (A-431) [µM] | IC50 (PC-9) [µM] | IC50 (NCI-H1975) [µM] | A-431/NCI-H1975 Selectivity (NCI-H1975)
C=CC(=O)Nc1cc(Nc2cc(-c3ccc4c(cnn4C)c3)ncn2)c(OC(F)F)cc1N(C)CCN1CCN(C)CC1 [compound 67] | 0.891 | 0.015 | 0.0146 | 61.0
C=CC(=O)Nc1cc(Nc2cc(-c3ccc4c(cnn4C)c3)ncn2)c(OC)cc1N(C)C1CCCN(C)C1 (stereo not drawn) [compound 69] | 1.83 | 0.0104 | 0.0134 | 136.8
C=CC(=O)Nc1cc(Nc2cc(-c3ccc4c(cnn4C)c3)ncn2)c(OC)cc1N(C)C1CCC(N(C)C)CC1 (stereo not drawn) [compound 71] | 2.56 | 0.0278 | 0.0331 | 77.3
C=CC(=O)Nc1cc(Nc2cc(-c3ccc4c(cnn4C)c3)ncn2)c(OC)cc1N(C)C1CCC(N2CCN(C)CC2)CC1 (stereo not drawn) [compound 72] | 1.9 | 0.0297 | 0.0452 | 42.1
C=CC(=O)Nc1cc(Nc2cc(-c3ccc4cnn(C)c4c3)ncn2)c(OC)cc1N(C)C1CCCN(C)C1 (stereo not drawn) [compound 73] | 1.03 | 0.0504 | 0.0653 | 15.7
C=CC(=O)Nc1cc(Nc2cc(-c3ccc4cnn(C)c4c3)ncn2)c(OC)cc1N(C)C1CCN(C)C1 (stereo not drawn) [compound 74] | 1.15 | 0.0106 | 0.0319 | 36.0
C=CC(=O)Nc1cc(Nc2cc(-c3ccc4c(cnn4C)c3)ncn2)c(OC(C)C)cc1N(C)CCN(C)C [compound 75] | 1.5 | 0.0136 | 0.0243 | 61.7
C=CC(=O)Nc1cc(Nc2cc(-c3ccc4c(cnn4C)c3)ncn2)c(OC)cc1N(C)CCN(C)C(C)=O [compound 76] | 9.45 | 0.0579 | 0.0873 | 108.3
C=CC(=O)Nc1cc(Nc2cc(-c3ccc4cnn(C)c4c3)ncn2)c(OC)cc1N1CCN(CCN(C)C)CC1 [compound 77] | 1.15 | 0.0164 | 0.0345 | 33.5
C=CC(=O)Nc1cc(Nc2cc(-c3ccc4cnn(C)c4c3)ncn2)c(OC)cc1N(C)CCN1CCN(C)CC1 [compound 78] | 1.03 | 0.0478 | 0.0618 | 16.7
C=CC(=O)Nc1cc(Nc2cc(-c3ccc4cnn(C)c4c3)ncn2)c(OC)cc1N(C)CCCN(C)C [compound 79] | 1.1 | 0.0679 | 0.0736 | 15
C=CC(=O)Nc1cc(Nc2cc(-c3ccc4cnn(C)c4c3)ncn2)c(OC)cc1N(C)CCN(CC)CC [compound 80] | 0.586 | 0.0359 | 0.043 | 13.6
C=CC(=O)Nc1cc(Nc2cc(-c3ccc4ncsc4c3)ncn2)c(OC)cc1N(C)C1CCN(C)CC1 [compound 81] | 1.38 | 0.0264 | 0.0287 | 48.1
C=CC(=O)Nc1cc(Nc2cc(-c3ccc4ncsc4c3)ncn2)c(OC)cc1N1C[C@@H](C)N(C)[C@@H](C)C1 [compound 82] | 1.09 | 0.0296 | 0.024 | 45.6
C=CC(=O)Nc1cc(Nc2cc(-c3ccc4c(cnn4C(C)C)c3)ncn2)c(OC)cc1N1C[C@@H](C)N(C)[C@@H](C)C1 [compound 83] | 1.52 | 0.0779 | 0.0672 | 22.6
C=CC(=O)Nc1cc(Nc2cc(-c3ccc4c(cnn4C(C)C)c3)ncn2)c(OC)cc1N1CCC(N2CCN(C)CC2)CC1 [compound 84] | 0.988 | 0.0275 | 0.0344 | 28.7
C=CC(=O)Nc1cc(Nc2cc(-c3ccc4c(cnn4C(C)C)c3)ncn2)c(OC)cc1N(C)C1CCN(C)CC1 [compound 85] | 1.84 | 0.0567 | 0.0723 | 25.4
C=CC(=O)Nc1cc(Nc2cc(-c3ccc4c(cnn4C(C)C)c3)ncn2)c(OC)cc1N1CCC(C2CCN(C)CC2)CC1 [compound 86] | 1.78 | 0.0764 | 0.0916 | 19.4
C=CC(=O)Nc1cc(Nc2cc(-c3ccc4c(cnn4C(C)C)c3)ncn2)c(OC)cc1N(C)C1CCN(C2CCN(C)CC2)CC1 [compound 87] | 1.96 | 0.0776 | 0.114 | 17.2
C=CC(=O)Nc1cc(Nc2cc(-c3ccc4c(cnn4C)c3)ncn2)c(OC)cc1N(C)CCN(C)CC [compound 88] | 0.987 | 0.0072 | 0.0061 | 161.8
C=CC(=O)Nc1cc(Nc2cc(-c3ccc4c(cnn4CC)c3)ncn2)c(OCC)cc1N(C)CCN(C)C [compound 89] | 0.954 | 0.0148 | 0.0199 | 48.0
C=CC(=O)Nc1cc(Nc2cc(-c3ccc4c(cnn4C)c3)ncn2)c(OCC)cc1N1C[C@@H](C)N(C)[C@@H](C)C1 [compound 90] | 1.75 | 0.0155 | 0.0265 | 66.2
C=CC(=O)Nc1cc(Nc2cc(-c3ccc4c(cnn4CC)c3)ncn2)c(OCC)cc1N1C[C@@H](C)N(C)[C@@H](C)C1 [compound 91] | 1.32 | 0.0472 | 0.0622 | 21.3
C=CC(=O)Nc1cc(Nc2cc(-c3ccc4c(cnn4CC)c3)ncn2)c(OC(F)F)cc1N(C)CCN(C)C [compound 92] | 0.764 | 0.0131 | 0.0093 | 82.1
C=CC(=O)Nc1cc(Nc2cc(-c3ccc4c(cnn4C)c3)ncn2)c(OCC)cc1N(C)CCN(CC)CC [compound 93] | 0.854 | 0.0185 | 0.0205 | 41.7
C=CC(=O)Nc1cc(Nc2cc(-c3ccc4c(cnn4CC)c3)ncn2)c(OCC)cc1N(C)CCN(CC)CC [compound 94] | 2.04 | 0.0557 | 0.0478 | 42.6
C=CC(=O)Nc1cc(Nc2cc(-c3ccc4c(cnn4C)c3)ncn2)c(OC(F)F)cc1N(C)CCN(CC)CC [compound 95] | 0.997 | 0.0122 | 0.0067 | 148.9
